Laboratory results taken from ChEMBL document CHEMBL5107980, “Seeking heterocyclic scaffolds as antivirals against dengue virus” (Eur J Med Chem, 2022).
Converted amounts (≈) assume the structure as drawn.

Legend:
[1] = Selectivity Index, ratio of CC50 for hamster BHK-21 cells to EC50 for antiviral activity against DENV2 infected in asian tiger mosquito C6/36 cells; format: toxicity; settings: BHK-21 cells (CC50) and DENV2-infected C6/36 cells (EC50)
dengue virus type 2 [2] = assay: Antiviral activity against DENV2 infected in asian tiger mosquito C6/36 cells assessed as inhibition of virus induced cytopathic effect measured after 96 hrs by methylene blue staining based microscopic analysis; format: functional, organism-based; settings: C6/36, 96 h
[3] = Cytotoxicity against hamster BHK-21 cells assessed as cell growth inhibition after 48 hrs by MTT assay; format: toxicity, cell-based, Mesocricetus auratus
[4] = Cytotoxicity against African green monkey Vero cells assessed as cell growth inhibition after 48 hrs by MTT assay; format: toxicity, cell-based; settings: chlorocebus sabaeus
dengue virus type 2 [5] = assay: Antiviral activity against DENV2 infected in African green monkey Vero cells assessed as inhibition of viral replication measured after 48 hrs by RT-PCR analysis; format: functional, organism-based
[6] = Selectivity Index, ratio of CC50 for African green monkey Vero cells to EC50 for antiviral activity against DENV2 infected in African green monkey Vero cells; format: toxicity; settings: Vero cells (CC50) and DENV2-infected Vero cells (EC50)
dengue virus type 3 [7] = assay: Antiviral activity against DENV3 infected in hamster BHK-21 cells assessed as inhibition of virus induced cytopathic effect by viral tox-glo assay; format: functional, organism-based
[8] = Inhibition of DENV2 His6-tagged recombinant NGC RdRP expressed in Escherichia coli Rosetta2(DE3) measured after 180 mins in presence of NTP by scintillation counter analysis; set-up: species or system dengue virus type 2
[9] = Inhibition of DENV1 (US/Hawaii/1944) RdRP expressed in Escherichia coli Rosetta2(DE3) incubated for 180 mins in presence of ATP,GTP,and UTP by scintillation counter analysis; set-up: species or system dengue virus type 1
[10] = Inhibition of DENV4 (MY01-22713) RdRP expressed in Escherichia coli Rosetta2(DE3) incubated for 180 mins in presence of ATP,GTP,and UTP by scintillation counter analysis; set-up: species or system dengue virus type 4
[11] = Inhibition of DENV3 (MY00-22366) RdRP expressed in Escherichia coli Rosetta2(DE3) incubated for 180 mins in presence of ATP,GTP,and UTP by scintillation counter analysis; set-up: species or system dengue virus type 3
dengue virus type 4 [12] = assay: Antiviral activity against DENV4 infected in hamster BHK-21 cells assessed as inhibition of virus induced cytopathic effect by viral tox-glo assay; format: functional, organism-based
dengue virus type 1 [13] = assay: Antiviral activity against DENV1 infected in hamster BHK-21 cells assessed as inhibition of virus induced cytopathic effect by viral tox-glo assay; format: functional, organism-based
dengue virus type 2 [14] = assay: Antiviral activity against DENV2 infected in hamster BHK-21 cells assessed as inhibition of virus induced cytopathic effect by viral tox-glo assay; format: functional, organism-based
dengue virus type 2 [15] = assay: Antiviral activity against DENV2 infected in hamster BHK-21 cells assessed as inhibition of virus induced cytopathic effect incubated for 45 mins by plaque formation assay; format: functional, organism-based; settings: BHK-21, 0.75 h
Aedes aegypti [16] = assay: Larvicidal activity against Aedes aegypti assessed as mortality measured upto 48 hrs; format: functional; settings: for LC50: Aedes aegypti
dengue virus type 1 [17] = assay: Antiviral activity against DENV1 infected in hamster BHK-21 cells assessed as inhibition of virus induced cytopathic effect incubated for 45 mins by focus-formation assay; format: functional, organism-based; settings: BHK-21, 0.75 h
Genome polyprotein = Genome polyprotein (dengue virus type 2, UniProt P29990); assay: Inhibition of DENV2 NS2B-NS3 protease using Bz-Nle-Lys-Arg-Arg-AMC as substrate measured after 30 mins by spectrofluorometer analysis
[18] = target: Genome polyprotein (dengue virus type 2) (UniProt P29990); assay: Inhibition of DENV2 NS2B-NS3 protease at 50 uM using Bz-Nle-Lys-Arg-Arg-AMC as substrate measured after 30 mins by spectrofluorometer analysis relative to control
[19] = target: Genome polyprotein (dengue virus type 2) (UniProt P29990); assay: Inhibition of DENV2 NS2B-NS3 protease at 50 uM using Bz-Nle-Lys-Arg-Arg-AMC as substrate by spectrofluorometer analysis relative to control
dengue virus type 2 [20] = assay: Antiviral activity against DENV2; format: functional, organism-based
Aedes aegypti [21] = assay: Larvicidal activity against Aedes aegypti assessed as lethal dose per mosquito measured for 24 hrs; format: functional
Aedes aegypti [22] = assay: Larvicidal activity against Aedes aegypti assessed as mortality rate at 5 ug per mosquito measured after 24 hrs relative to control; format: functional; settings: dose 5 µg
dengue virus type 3 [23] = assay: Antiviral activity against DENV3 infected in African green monkey Vero cells assessed as inhibition of virus induced cytopathic effect incubated for 45 mins by focus-formation assay; format: functional, organism-based; settings: 0.75 h
Dengue virus = assay: Antiviral activity against DENV; format: functional, organism-based
[24] = Inhibition of DENV-2 NS5 RdRp polymerase expressed in Escherichia coli Rosetta2(DE3) measured after 1 hr by [alpha-32P]UTP-labeled radio-probe based scintillation counter analysis; set-up: species or system dengue virus type 2
dengue virus type 4 [25] = assay: Antiviral activity against DENV4 infected in hamster BHK-21 cells assessed as inhibition of virus induced cytopathic effect incubated for 45 mins by focus-formation assay; format: functional, organism-based; settings: BHK-21, 0.75 h

Cc1ccc(-c2nc3nc4c(c(N5CCN(Cc6ccc7c(c6)OCO7)CC5)n3n2)CCC4)cc1
selectivity ratio [1]: 14.7
EC50 (dengue virus type 2 [2]): 4.5 µM
CC50 at 48 h [3]: 66 µM

CCCc1cc(=O)oc2c(C(=O)CC(C)C)c(O)c(CC=C(C)C)c(O)c12
CC50 at 48 h [4]: 550 µg/mL (≈ 1480 µM)
EC50 (dengue virus type 2 [5]): 2.6 µg/mL (≈ 6.98 µM)
selectivity ratio [6]: 212

O=C(NO)c1ncc(CS(=O)(=O)c2ccccc2)c(CO)c1O
EC50 (dengue virus type 3 [7]): 2.7 µM
IC50 [8]: 6 µM
IC50 [9]: 5.7 µM
IC50 [10]: 5 µM
IC50 [11]: 6.7 µM
EC50 (dengue virus type 4 [12]): 2.2 µM
EC50 (dengue virus type 1 [13]): 2.7 µM
EC50 (dengue virus type 2 [14]): 2.8 µM

FC(F)(F)Oc1cccc(Nc2nccc(Nc3ccc(C(F)(F)F)cc3)n2)c1
IC50 (dengue virus type 2 [15]): 5 µM

FC(F)(F)Oc1ccc(Nc2ccnc(Nc3ccccc3OC(F)(F)F)n2)cc1
IC50 (dengue virus type 2 [15]): 5 µM

Cc1[nH]c2ccc(Br)cc2c1C
LC90 (Aedes aegypti [16]): 14.74 µM
LC50 (Aedes aegypti [16]): 10.6 µM

FC(F)(F)Oc1ccc(Nc2ccnc(Nc3cccc(OC(F)(F)F)c3)n2)cc1
IC50 (dengue virus type 1 [17]): 4 µM

O=C1c2ccccc2C(=O)N1CCCCSc1nnc(-c2ccc(NS(=O)(=O)c3ccc(C(F)(F)F)cc3)cc2)o1
IC50 (Genome polyprotein): 15.1 µM
inhibition [18]: 77.6%

Cc1[nH]c2c(C(=O)O)cccc2c1C
LC90 (Aedes aegypti [16]): >528.51 µM
LC50 (Aedes aegypti [16]): > 854 µM

O=c1c2ccccc2sn1-c1ccccc1O
inhibition [19]: 89%

Cc1ccc(S(=O)(=O)Nc2ccc(-c3nnc(SCc4cccc(C(F)(F)F)c4)o3)cc2)cc1
IC50 (Genome polyprotein): 23.9 µM
inhibition [18]: 80.4%

CC(C)(C)[Si](C)(C)Oc1ccc(C2N(Nc3ccc([N+](=O)[O-])cc3)C(=O)[C@@H]3Cc4ccccc4N23)cc1 (stereo not given in full)
EC50 (dengue virus type 2 [20]): 4.79 µM

CS(=O)(=O)N1CCN(c2nnc(-c3ccc(Br)cc3)o2)C1=O
LD50 (Aedes aegypti [21]): 3.55 µg
Activity (Aedes aegypti [22]): 86.7%

FC(F)(F)Oc1cccc(Nc2ccnc(Nc3cccc(OC(F)(F)F)c3)n2)c1
IC50 (dengue virus type 3 [23]): 5 µM

CS(=O)(=O)N1CCN(c2nnc(-c3ccc(Cl)cc3Cl)o2)C1=O
LD50 (Aedes aegypti [21]): 2.39 µg
Activity (Aedes aegypti [22]): 86.7%

Cc1cc([N+](=O)[O-])ccc1-n1sc2ccccc2c1=O
inhibition [19]: 92%

CC(C)CC(=O)c1c(O)c2c(c3c(-c4ccccc4)cc(=O)oc13)OC(C)(C)C=C2 [ISOMAMMEIGIN]
CC50 at 48 h [4]: 3150 µg/mL (≈ 7790 µM)
EC50 (dengue virus type 2 [5]): 9.6 µg/mL (≈ 23.7 µM)
selectivity ratio [6]: 328

CNc1cccc(Nc2ccnc3ccc(Br)cc23)c1
EC50 (Dengue virus): 0.24 µM

COc1ccc([C@@H]2N(Nc3ccc([N+](=O)[O-])cc3)C(=O)[C@@H]3Cc4ccccc4N23)cc1OC
EC50 (dengue virus type 2 [20]): 9.35 µM

O=C1N/C(=N\c2nnc(-c3ccccc3F)s2)S/C1=C\c1cccc(F)c1
IC50 [24]: 7.2 µM

O=c1c2ccccc2sn1-c1ccc(Br)cc1
inhibition [19]: 80%

Cc1cc(OC(F)(F)F)ccc1Nc1ccnc(Nc2ccccc2OC(F)(F)F)n1
IC50 (dengue virus type 2 [15]): 5 µM

O=C1N/C(=N\c2nnc(-c3cccnc3)s2)S/C1=C\c1cccc(F)c1
IC50 [24]: 5.5 µM

Fc1cc2cn[nH]c2cc1Nc1ccnc2ccc(Br)cc12
EC50 (Dengue virus): 0.69 µM
EC90 (Dengue virus): 4 µM

Oc1cccc(Nc2ccnc3ccc(Br)cc23)c1
EC50 (Dengue virus): 0.63 µM

COc1cccc(Nc2ccnc3ccc(C(F)(F)F)cc23)c1
EC50 (Dengue virus): 0.82 µM

CS(=O)(=O)N1CCN(c2nnc(-c3ccccc3)o2)C1=O
Activity (Aedes aegypti [22]): 73.3%

Cc1ccc(S(=O)(=O)Nc2ccc(-c3nnc(SCc4ccccc4C(F)(F)F)o3)cc2)cc1
IC50 (Genome polyprotein): 24 µM
inhibition [18]: 80.8%

O=C1N/C(=N\c2nnc(-c3ccccc3Cl)s2)S/C1=C\c1cccc(F)c1
IC50 [24]: 2.1 µM

OCCN1CCN(c2nccc(Nc3ccc(-c4ccccc4)cc3)n2)CC1
LC90 (Aedes aegypti [16]): 30.13 µM
LC50 (Aedes aegypti [16]): 19.9 µM

O=c1c2ccccc2sn1-c1ccccc1[N+](=O)[O-]
inhibition [19]: 72%

O=C1N/C(=N\c2nnc(-c3cccc(F)c3)s2)S/C1=C\c1c(Cl)cccc1Cl
IC50 [24]: 5.8 µM

O=C1N/C(=N\c2nnc(-c3cccc(F)c3)s2)S/C1=C\c1cccc(F)c1
IC50 [24]: 2.3 µM

O=c1c2ccccc2sn1-c1c(Cl)cccc1Cl
inhibition [19]: 94%

O=C1c2ccccc2C(=O)N1CCCSc1nnc(-c2ccc(NS(=O)(=O)c3ccc(C(F)(F)F)cc3)cc2)o1
IC50 (Genome polyprotein): 13.9 µM
inhibition [18]: 99.9%

O=C1N=Cc2ccc(Nc3ccnc4ccc(Br)cc34)cc21
EC50 (Dengue virus): 0.64 µM
EC90 (Dengue virus): 1.5 µM

O=c1c2ccccc2sn1-c1ccccc1Cl
inhibition [19]: 94%

Cc1ccc(S(=O)(=O)Nc2ccc(-c3nnc(SCc4ccc(C(F)(F)F)cc4)o3)cc2)cc1
IC50 (Genome polyprotein): 25.2 µM
inhibition [18]: 83.9%

FC(F)(F)Oc1ccccc1Nc1nccc(Nc2ccc(C(F)(F)F)cc2)n1
IC50 (dengue virus type 4 [25]): 5 µM

CS(=O)(=O)N1CCN(c2nnc(-c3ccc(F)cc3)o2)C1=O
Activity (Aedes aegypti [22]): 70%
